Test results from patent publication US8298176B2, “Flow-induced delivery from a drug mass” (priority 2006, dated 2012).

Assays:
[1] = cited from earlier work
[2] = body temperature / in the presence of water; cited from earlier work
[3] = Dissolution of gacyclidine base pellets in a continuous flow reactor (elution with Ringer's solution containing hydrochloric acid); type: physicochemical; details: for pH of the eluted drug solution: room temperature (23±2° C.)
Description: A drug chamber similar to the one illustrated in FIGS. 2 and 4 was loaded with 11 pellets of gacyclidine base having a combined mass of 18 mg. This drug-loaded chamber was eluted at a flow rate of 20 μL/hr at room temperature (23±2° C.) using a MiniMed 508 syringe pump (available from Medtronics MiniMed of Northridge, Calif.). The syringe was loaded with 3 mL of Ringer's solution containing 0.05 to 3 mM hydrochloric acid. The eluted volume was collected in PTFE tubing attached to the pump drug capsule assembly, after a 3-D antibacterial filter. The pH of this solution was determined by use of a pH meter equipped with a Calomel electrode. Drug concentration was determined by HPLC.
The highest pH of the eluted drug solution (5.9) was obtained at 0.05 mM hydrochloric acid, and the lowest pH of the eluted drug solution (5.6) was obtained at 3 mM hydrochloric acid. These pH values indicate quantitative conversion of the hydrochloric acid to the drug salt and are consistent with the pH expected for solutions of the hydrochloride salt.

SMILES | water solubility (in words) [1] | stability (in words) [2] | correlation in gacyclidine concentration per hydrochloric acid concentration used for elution ([3]; 0.05 to 3 mM HCl in Ringer's solution, 20 μL/hr, linear fit of FIG. 26, drug by HPLC) | pH of the eluted drug solution ([3]; eluted with Ringer's solution containing 0.05 mM hydrochloric acid, 20 μL/hr, highest pH) | pH of the eluted drug solution ([3]; eluted with Ringer's solution containing 3 mM hydrochloric acid, 20 μL/hr, lowest pH) | intercept at zero concentration of hydrochloric acid ([3]; linear fit of FIG. 26, gacyclidine concentration in eluate)
CC1(C)O[C@@H]2C[C@H]3[C@@H]4CCC5=CC(=O)C=C[C@]5(C)[C@@]4(F)[C@@H](O)C[C@]3(C)[C@]2(C(=O)CO)O1 [triamcinolone acetonide] | very low water solubility | – | – | – | – | –
C[C@H]1CCCC[C@@]1(c1cccs1)N1CCCCC1.Cl [hydrochloride salt of gacyclidine] | highly water soluble | unstable at body temperature | – | – | – | –
CC1CCCCC1(c1cccs1)N1CCCCC1 (stereo not shown) [gacyclidine] | sparingly soluble in water | much more stable than its acidic form in the presence of water | 0.976±0.049 | 5.9 | 5.6 | 0.0014 ± 0.0061 mM
CCN(CC)C(=O)SC[C@H](NC(=O)CC[C@H](N)C(=O)O)C(=O)NCC(=O)O [carbamathione] | sparingly soluble in water | – | – | – | – | –
